For assay [1], the target named is GDP-bound NRAS wild-type protein (Homo sapiens, UniProt P01111). Put plainly: Binding to NRAS by surface plasmon resonance (SPR), Single Cycle Kinetics. The following applies: KD ratio NRAS/KRAS, SPR.
For assay [2], the target named is GDP-bound HRAS wild-type protein (Homo sapiens, UniProt P01112). The assay is described as follows: Binding to HRAS by surface plasmon resonance (SPR), Single Cycle Kinetics. The following applies: KD ratio HRAS/KRAS, SPR.

Where a SMILES comes first, the peptide text is derived from it. Bridges are numbered along the chain shown (N, C = ends). [ ]: non-standard residue; d: D form. The star is where a group is joined. hPhe(3-Cl-4-CF3) = N[C@@H](CCc1ccc(C(F)(F)F)c(Cl)c1)C(=O)O; NPrPhe(4-CF3) = CCCN[C@@H](Cc1ccc(C(F)(F)F)cc1)C(=O)O; Abu(4,4,4-F3) = N[C@@H](CC(F)(F)F)C(=O)O; NMeGly(cPent) = CN[C@H](C(=O)O)C1CCCC1; cisHyp = O=C(O)[C@@H]1C[C@H](O)CN1; Hyp = O=C(O)[C@@H]1C[C@@H](O)CN1; Gly(cBu) = N[C@H](C(=O)O)C1CCC1; NMeD = CN[C@@H](CC(=O)O)C(=O)O; NMeL = CN[C@@H](CC(C)C)C(=O)O; Morpholide = C1CN(*)CCO1; Ac5c = NC1(C(=O)O)CCCC1; NcPrGly = O=C(O)CNC1CC1; Abu = CC[C@H](N)C(=O)O; NPrGly = CCCNCC(=O)O; Sar = CNCC(=O)O

GDP-bound HRAS wild-type protein, sequence (P01112 whole entry): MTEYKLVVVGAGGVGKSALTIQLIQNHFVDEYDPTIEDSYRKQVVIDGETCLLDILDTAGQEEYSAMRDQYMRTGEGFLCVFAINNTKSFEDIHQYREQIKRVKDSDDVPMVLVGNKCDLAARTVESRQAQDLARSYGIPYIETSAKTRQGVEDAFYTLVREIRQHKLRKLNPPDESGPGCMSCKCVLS
GDP-bound NRAS wild-type protein, sequence (P01111 whole entry): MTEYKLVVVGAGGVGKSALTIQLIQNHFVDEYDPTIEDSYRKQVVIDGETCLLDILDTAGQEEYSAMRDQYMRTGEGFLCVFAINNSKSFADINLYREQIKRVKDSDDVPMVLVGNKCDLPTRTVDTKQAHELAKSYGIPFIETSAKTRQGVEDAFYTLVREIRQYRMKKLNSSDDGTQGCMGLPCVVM

On to `CCCN1C(=O)[C@@H]2CCN2C(=O)[C@H](C)N(C)C(=O)[C@H]([C@@H](C)CC)NC(=O)[C@H](CC(C)C)N(C)C(=O)C[C@@H](C(=O)N2CCOCC2)N(C)C(=O)[C@H](C2CCCC2)N(C)C(=O)C2(CCCC2)NC(=O)[C@@H]2C[C@@H](O)CN2C(=O)[C@H](CCc2ccc(C(F)(F)F)c(Cl)c2)NC(=O)CN(C)C(=O)[C@@H]1Cc1ccc(C(F)(F)F)cc1` [PP0239], for which the “NRAS/KRAS (ratio of KD for GDP-bound NRAS wild-type to KD for KRAS)” value in assay [1] was “C (A compound having a KD ratio of 0.1 or more and less than 3 is denoted as C)”. Further, the “HRAS/KRAS (ratio of KD for GDP-bound HRAS wild-type to KD for KRAS)” value in assay [2] is “B (a compound having 3 or more and less than 10 is denoted as B)”.

In the case of `CCCN1C(=O)CN(C)C(=O)CN(C)C(=O)[C@H]([C@@H](C)CC)NC(=O)[C@H](CC(C)C)N(C)C(=O)C[C@@H](C(=O)N2CCOCC2)N(C)C(=O)[C@H](C2CCCC2)N(C)C(=O)C2(CCCC2)NC(=O)[C@@H]2C[C@H](O)CN2C(=O)[C@H](CCc2ccc(C(F)(F)F)c(Cl)c2)NC(=O)CN(C)C(=O)[C@@H]1Cc1ccc(C(F)(F)F)cc1` [PP0240] ([NMeL]I[Sar][Sar][NPrPhe(4-CF3)][Sar][hPhe(3-Cl-4-CF3)][cisHyp][Ac5c][NMeGly(cPent)][NMeD]-Morpholide; lactam N-11), in assay [1], the “NRAS/KRAS (ratio of KD for GDP-bound NRAS wild-type to KD for KRAS)” value is “B (a compound having 3 or more and less than 10 is denoted as B)”. For the same molecule, in assay [2], the “HRAS/KRAS (ratio of KD for GDP-bound HRAS wild-type to KD for KRAS)” value is “C (A compound having a KD ratio of 0.1 or more and less than 3 is denoted as C)”.

As for `CCCN1C(=O)CN(C)C(=O)CN(C)C(=O)[C@H]([C@@H](C)CC)NC(=O)[C@H](CC(C)C)N(C)C(=O)C[C@@H](C(=O)N2CCOCC2)N(C)C(=O)[C@H](C2CCCC2)N(C)C(=O)C2(CCCC2)NC(=O)[C@@H]2C[C@@H](O)CN2C(=O)[C@H](CCc2ccc(C(F)(F)F)c(Cl)c2)NC(=O)CN(C)C(=O)[C@@H]1Cc1ccc(C(F)(F)F)cc1` [PP0241] ([NMeL]I[Sar][Sar][NPrPhe(4-CF3)][Sar][hPhe(3-Cl-4-CF3)][Hyp][Ac5c][NMeGly(cPent)][NMeD]-Morpholide; lactam N-11), the “NRAS/KRAS (ratio of KD for GDP-bound NRAS wild-type to KD for KRAS)” value in assay [1] was “B (a compound having 3 or more and less than 10 is denoted as B)”. Besides, in assay [2], the “HRAS/KRAS (ratio of KD for GDP-bound HRAS wild-type to KD for KRAS)” value was “C (A compound having a KD ratio of 0.1 or more and less than 3 is denoted as C)”.

Regarding `CCCN1C(=O)CN(C)C(=O)CN(C)C(=O)[C@H]([C@@H](C)CC)NC(=O)[C@H](CC(C)C)N(C)C(=O)C[C@@H](C(=O)N2CCOCC2)N(C)C(=O)[C@H](C2CCCC2)N(C)C(=O)C2(CCCC2)NC(=O)[C@@H]2C[C@H](OCC)CN2C(=O)[C@H](CCc2ccc(C(F)(F)F)c(Cl)c2)NC(=O)CN(C)C(=O)[C@@H]1Cc1ccc(C(F)(F)F)cc1` [PP0243] ([NMeL]I[Sar][Sar][NPrPhe(4-CF3)][Sar][hPhe(3-Cl-4-CF3)][cisHyp](Et)[Ac5c][NMeGly(cPent)][NMeD]-Morpholide; lactam N-11), the “NRAS/KRAS (ratio of KD for GDP-bound NRAS wild-type to KD for KRAS)” value in assay [1] was “B (a compound having 3 or more and less than 10 is denoted as B)”. Further, in assay [2], the “HRAS/KRAS (ratio of KD for GDP-bound HRAS wild-type to KD for KRAS)” value is “C (A compound having a KD ratio of 0.1 or more and less than 3 is denoted as C)”.

`CCCN1C(=O)CN(C)C(=O)CN(C)C(=O)[C@H](CC)NC(=O)[C@H](CC(C)C)N(C)C(=O)C[C@@H](C(=O)N2CCOCC2)N(C)C(=O)[C@H](C2CCCC2)N(C)C(=O)C2(CCCC2)NC(=O)[C@@H]2CCCN2C(=O)[C@H](CCc2ccc(C(F)(F)F)c(Cl)c2)NC(=O)CN(C)C(=O)[C@@H]1Cc1ccc(C(F)(F)F)cc1` [PP0248] ([NMeL][Abu][Sar][Sar][NPrPhe(4-CF3)][Sar][hPhe(3-Cl-4-CF3)]P[Ac5c][NMeGly(cPent)][NMeD]-Morpholide; lactam N-11): the “NRAS/KRAS (ratio of KD for GDP-bound NRAS wild-type to KD for KRAS)” value in assay [1] was “B (a compound having 3 or more and less than 10 is denoted as B)”. The “HRAS/KRAS (ratio of KD for GDP-bound HRAS wild-type to KD for KRAS)” value in assay [2] is “B (a compound having 3 or more and less than 10 is denoted as B)”.

As for `CCCN1C(=O)CN(C)C(=O)CN(C)C(=O)[C@H](CC(F)(F)F)NC(=O)[C@H](CC(C)C)N(C)C(=O)C[C@@H](C(=O)N2CCOCC2)N(C)C(=O)[C@H](C2CCCC2)N(C)C(=O)C2(CCCC2)NC(=O)[C@@H]2CCCN2C(=O)[C@H](CCc2ccc(C(F)(F)F)c(Cl)c2)NC(=O)CN(C)C(=O)[C@@H]1Cc1ccc(C(F)(F)F)cc1` [PP0249] ([NMeL][Abu(4,4,4-F3)][Sar][Sar][NPrPhe(4-CF3)][Sar][hPhe(3-Cl-4-CF3)]P[Ac5c][NMeGly(cPent)][NMeD]-Morpholide; lactam N-11), the “NRAS/KRAS (ratio of KD for GDP-bound NRAS wild-type to KD for KRAS)” value in assay [1] is “B (a compound having 3 or more and less than 10 is denoted as B)”. Besides, in assay [2], the “HRAS/KRAS (ratio of KD for GDP-bound HRAS wild-type to KD for KRAS)” value is “C (A compound having a KD ratio of 0.1 or more and less than 3 is denoted as C)”.

`CCCN1C(=O)CN(C)C(=O)CN(C)C(=O)[C@H](C2CCC2)NC(=O)[C@H](CC(C)C)N(C)C(=O)C[C@@H](C(=O)N2CCOCC2)N(C)C(=O)[C@H](C2CCCC2)N(C)C(=O)C2(CCCC2)NC(=O)[C@@H]2CCCN2C(=O)[C@H](CCc2ccc(C(F)(F)F)c(Cl)c2)NC(=O)CN(C)C(=O)[C@@H]1Cc1ccc(C(F)(F)F)cc1` [PP0250] ([NMeL][Gly(cBu)][Sar][Sar][NPrPhe(4-CF3)][Sar][hPhe(3-Cl-4-CF3)]P[Ac5c][NMeGly(cPent)][NMeD]-Morpholide; lactam N-11): the “NRAS/KRAS (ratio of KD for GDP-bound NRAS wild-type to KD for KRAS)” value in assay [1] is “B (a compound having 3 or more and less than 10 is denoted as B)”. In addition, the “HRAS/KRAS (ratio of KD for GDP-bound HRAS wild-type to KD for KRAS)” value in assay [2] was “C (A compound having a KD ratio of 0.1 or more and less than 3 is denoted as C)”.

Take `CCCN1C(=O)CN(C)C(=O)CN(C2CC2)C(=O)[C@H]([C@@H](C)CC)NC(=O)[C@H](CC(C)C)N(C)C(=O)C[C@@H](C(=O)N2CCOCC2)N(C)C(=O)[C@H](C2CCCC2)N(C)C(=O)C2(CCCC2)NC(=O)[C@@H]2CCCN2C(=O)[C@H](CCc2ccc(C(F)(F)F)c(Cl)c2)NC(=O)CN(C)C(=O)[C@@H]1Cc1ccc(C(F)(F)F)cc1` [PP0252] ([NMeL]I[NcPrGly][Sar][NPrPhe(4-CF3)][Sar][hPhe(3-Cl-4-CF3)]P[Ac5c][NMeGly(cPent)][NMeD]-Morpholide; lactam N-11): the “NRAS/KRAS (ratio of KD for GDP-bound NRAS wild-type to KD for KRAS)” value in assay [1] is “B (a compound having 3 or more and less than 10 is denoted as B)”. For the same molecule, in assay [2], the “HRAS/KRAS (ratio of KD for GDP-bound HRAS wild-type to KD for KRAS)” value was “B (a compound having 3 or more and less than 10 is denoted as B)”.

For the molecule `CCCN1CC(=O)N(C)CC(=O)N(CCC)[C@@H](Cc2ccc(C(F)(F)F)cc2)C(=O)N(C)CC(=O)N[C@@H](CCc2ccc(C(F)(F)F)c(Cl)c2)C(=O)N2CCC[C@H]2C(=O)NC2(CCCC2)C(=O)N(C)[C@@H](C2CCCC2)C(=O)N(C)[C@H](C(=O)N2CCOCC2)CC(=O)N(C)[C@@H](CC(C)C)C(=O)N[C@@H]([C@@H](C)CC)C1=O` [PP0253] ([NMeL]I[NPrGly][Sar][NPrPhe(4-CF3)][Sar][hPhe(3-Cl-4-CF3)]P[Ac5c][NMeGly(cPent)][NMeD]-Morpholide; lactam N-11), the “NRAS/KRAS (ratio of KD for GDP-bound NRAS wild-type to KD for KRAS)” value in assay [1] is “B (a compound having 3 or more and less than 10 is denoted as B)”. The “HRAS/KRAS (ratio of KD for GDP-bound HRAS wild-type to KD for KRAS)” value in assay [2] was “B (a compound having 3 or more and less than 10 is denoted as B)”.

The values are drawn from patent US20250230193A1, “CYCLIC COMPOUND HAVING SELECTIVE KRAS INHIBITORY EFFECT ON HRAS AND NRAS” (CHUGAI SEIYAKU KABUSHIKI KAISHA, priority 2022, published 2025).
